Data: US10233142B2, “Metabolites of (1R-trans)-N-[[2-(2,3-dihydro-4-benzofuranyl)cyclopropyl]methyl]propanamide” (Vanda Pharmaceuticals, Inc., priority 2012, dated 2019)

Experiment: 14C-radiolabeled Tasimelteon administered to healthy male subjects; HPLC radio-chromatography of plasma, urine and feces
Format: in vivo, human
Settings: for share of the radioactivity of the administered dose in urine: 0-72 h urine samples; for share of the radioactivity of the administered dose in feces: fecal samples; for feces (0-120 h) (% dose) / plasma (% AUC) / urine (0-72 h) (% dose) / total excreta (% dose): healthy male subjects, 100 μCi/100 mg 14C-Tasimelteon; for plasma (% AUC): plasma 0.5-24 h; for total excreta (% dose): urine plus feces; for share of the total plasma radioactivity: plasma samples
Description: ^14C-radiolabeled (1R-trans)-N-[[2-(2,3-dihydro-4-benzofuranyl)cyclopropyl]methyl]propanamide was administered to healthy male subjects at a dosage of 100 μCi/100 mg. Plasma, urine, and fecal samples were then collected from subjects at predetermined time intervals following administration (0.5 h, 1 h, 2 h, 8 h, and 24 h for plasma; 0-6 h, 6-12 h, 12-24 h, and 24-72 h for urine; and 0-24 h, 24-48 h, and 48-120 h for feces). Plasma and fecal samples were subjected to methanol extraction to remove proteins. All samples were centrifuged to remove solids prior to HPLC radio-chromatography. Radioactivity in each fraction was determined by Packard TopCount® NXT™ Microplate Scintillation and Luminescence Counter technology. Selected urine, plasma, and fecal extracts were analyzed by LC/MS, coupled with a radioactivity monitor.
The proportionate presence of (1R-trans)-N-[[2-(2,3-dihydro-4-benzofuranyl)cyclopropyl]methyl]propanamide and the M9 and M11 metabolites in plasma, urine, and feces of the subjects is shown below in Table 1.

CCC(=O)NC[C@@H]1C[C@H]1c1cccc(O)c1CC(=O)O [M9]
share of the radioactivity of the administered dose in urine: ~30% | share of the radioactivity of the administered dose in feces: minor fecal metabolites | feces (0-120 h) (% dose): 0.85 % dose | plasma (% AUC): 19.79 % AUC | urine (0-72 h) (% dose): 29.69 % dose | total excreta (% dose): 30.54 % dose | share of the total plasma radioactivity: ~20%

CCC(=O)NC[C@@H]1C[C@H]1c1cccc(O)c1CCO [M11]
share of the radioactivity of the administered dose in urine: Neither unchanged Tasimelteon nor metabolite M11 were found | feces (0-120 h) (% dose): not detected | plasma (% AUC): 3.56 % AUC | urine (0-72 h) (% dose): not detected | total excreta (% dose): not detected | share of the total plasma radioactivity: approximately 3.5%

CCC(=O)NC[C@@H]1C[C@H]1c1cccc2c1CCO2 [Tasimelteon, (1R-trans)-N-[[2-(2,3-dihydro-4-benzofuranyl)cyclopropyl]methyl]propanamide]
share of the radioactivity of the administered dose in urine: Neither unchanged Tasimelteon nor metabolite M11 were found | share of the radioactivity of the administered dose in feces: minor fecal metabolites | feces (0-120 h) (% dose): 0.04 % dose | plasma (% AUC): 8.22 % AUC | urine (0-72 h) (% dose): not detected | total excreta (% dose): 0.04 % dose | share of the total plasma radioactivity: approximately 8%
